US20100041642A1, “UREA INHIBITORS OF MAP KINASES” (LOCUS PHARMACEUTICALS, INC., priority 2008, published 2010)
pIC50: −log10 of the molar value.

Each molecule was assayed against p38 (Homo sapiens, UniProt Q16539) (assay: Protein Kinase Assay (33P incorporation from γ-[33P]ATP into GST-ATF-2)). Details: 2 nM p38, preincubated 20 min at 30° C.; 10 uM cold ATP, 2 uM GST-ATF2, 70 min; read-out: ACT. (Activity), IC50 category in Protein Kinase Assay.
Assay type: biochemical
Outline: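 Compounds preincubated 20 min at 30 °C with 2 nM p38; reaction started with 2 uM GST-ATF-2 (aa 19-96) and 10 uM ATP plus γ-[33P]ATP, pH 7.5, 70 min at 30 °C, 2% DMSO. Phosphoric acid stop; 33P-labelled substrate captured on phosphocellulose and counted by scintillation.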

Sequence of p38 (Q16539 whole entry): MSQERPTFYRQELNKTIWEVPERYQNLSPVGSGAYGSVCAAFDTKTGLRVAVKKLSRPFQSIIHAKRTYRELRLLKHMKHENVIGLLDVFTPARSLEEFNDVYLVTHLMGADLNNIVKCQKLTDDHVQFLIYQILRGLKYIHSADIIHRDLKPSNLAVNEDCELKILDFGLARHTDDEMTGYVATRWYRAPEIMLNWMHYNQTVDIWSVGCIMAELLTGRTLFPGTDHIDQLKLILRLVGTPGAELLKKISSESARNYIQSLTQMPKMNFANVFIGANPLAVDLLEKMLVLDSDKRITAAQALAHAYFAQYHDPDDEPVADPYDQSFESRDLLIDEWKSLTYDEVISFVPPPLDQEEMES

Compound	pIC50
COc1ccc(-c2cc(NC(=O)Nc3sc(C(C)(C)C)cc3C(=O)N3CCNC(=O)C3(C)C)ccc2C)nc1 [1-(5-tert-butyl-3-(2,2-dimethyl-3-oxopiperazine-1-carbonyl)thiophen-2-yl)-3-(3-(5-methoxypyridin-2-yl)-4-methylphenyl)urea]	> 7.00
Cc1ccc(NC(=O)Nc2sc(C(C)(C)C)cc2C(=O)N2CCNC(=O)C2(C)C)cc1-c1ccc(C(C)O)nc1 (stereo not drawn) [1-(5-tert-butyl-3-(2,2-dimethyl-3-oxopiperazine-1-carbonyl)thiophen-2-yl)-3-(3-(6-(1-hydroxyethyl)pyridin-3-yl)-4-methylphenyl)urea]	> 7.00
Cc1ccc(NC(=O)Nc2sc(C(C)(C)C)cc2C(=O)N2CCNC(=O)C2(C)C)cc1-c1ccc(OCCN(C)C)nc1 [1-(5-tert-butyl-3-(2,2-dimethyl-3-oxopiperazine-1-carbonyl)thiophen-2-yl)-3-(3-(6-(2-(dimethylamino)ethoxy)pyridin-3-yl)-4-methylphenyl)urea]	> 7.00
CN(C)CCOc1ccc(-c2cccc(NC(=O)Nc3sc(C(C)(C)C)cc3C(=O)N3CCNC(=O)C3(C)C)c2)cn1 [1-(5-tert-butyl-3-(2,2-dimethyl-3-oxopiperazine-1-carbonyl)thiophen-2-yl)-3-(3-(6-(2-(dimethylamino)ethoxy)pyridin-3-yl)phenyl)urea]	> 7.00
CC(C)(C)c1cc(C(=O)N2CCNC(=O)C2(C)C)c(NC(=O)Nc2cccc(-c3ccc(OCCN4CCOCC4)nc3)c2)s1 [1-(5-tert-butyl-3-(2,2-dimethyl-3-oxopiperazine-1-carbonyl)thiophen-2-yl)-3-(3-(6-(2-morpholinoethoxy)pyridin-3-yl)phenyl)urea]	> 7.00
CN1CCN(CCCOc2ccc(-c3cccc(NC(=O)Nc4sc(C(C)(C)C)cc4C(=O)N4CCNC(=O)C4(C)C)c3)cn2)CC1 [1-(5-tert-butyl-3-(2,2-dimethyl-3-oxopiperazine-1-carbonyl)thiophen-2-yl)-3-(3-(6-(3-(4-methylpiperazin-1-yl)propoxy)pyridin-3-yl)phenyl)urea]	> 7.00
Cc1ccc(NC(=O)Nc2sc(C(C)(C)C)cc2C(=O)N2CCNC(=O)C2(C)C)cc1-c1ccc(OCCCN(C)C)nc1 [1-(5-tert-butyl-3-(2,2-dimethyl-3-oxopiperazine-1-carbonyl)thiophen-2-yl)-3-(3-(6-(3-(dimethylamino)propoxy)pyridin-3-yl)-4-methylphenyl)urea]	> 7.00
CN(C)CCCOc1ccc(-c2cccc(NC(=O)Nc3sc(C(C)(C)C)cc3C(=O)N3CCNC(=O)C3(C)C)c2)cn1 [1-(5-tert-butyl-3-(2,2-dimethyl-3-oxopiperazine-1-carbonyl)thiophen-2-yl)-3-(3-(6-(3-(dimethylamino)propoxy)pyridin-3-yl)phenyl)urea]	> 7.00
Cc1ccc(NC(=O)Nc2sc(C(C)(C)C)cc2C(=O)N2CCNC(=O)C2(C)C)cc1-c1ccc(N2CCC(N(C)C)C2)nc1 (stereo not drawn) [1-(5-tert-butyl-3-(2,2-dimethyl-3-oxopiperazine-1-carbonyl)thiophen-2-yl)-3-(3-(6-(3-(dimethylamino)pyrrolidin-1-yl)pyridin-3-yl)-4-methylphenyl)urea]	> 7.00
CC(C)(C)c1cc(C(=O)N2CCNC(=O)C2(C)C)c(NC(=O)Nc2cccc(-c3ccc(OCCCc4ccccn4)nc3)c2)s1 [1-(5-tert-butyl-3-(2,2-dimethyl-3-oxopiperazine-1-carbonyl)thiophen-2-yl)-3-(3-(6-(3-(pyridin-2-yl)propoxy)pyridin-3-yl)phenyl)urea]	> 7.00
CC(C)(C)c1cc(C(=O)N2CCNC(=O)C2(C)C)c(NC(=O)Nc2cccc(-c3ccc(OCCCN4CCOCC4)nc3)c2)s1 [1-(5-tert-butyl-3-(2,2-dimethyl-3-oxopiperazine-1-carbonyl)thiophen-2-yl)-3-(3-(6-(3-morpholinopropoxy)pyridin-3-yl)phenyl)urea]	> 7.00
Cc1ccc(NC(=O)Nc2sc(C(C)(C)C)cc2C(=O)N2CCNC(=O)C2(C)C)cc1-c1ccc(N(C)C)nc1 [1-(5-tert-butyl-3-(2,2-dimethyl-3-oxopiperazine-1-carbonyl)thiophen-2-yl)-3-(3-(6-(dimethylamino)pyridin-3-yl)-4-methylphenyl)urea]	> 7.00
